Experimental data as given in patent publication US20150342853A1, “Topical Lightening Composition and Methods of Use Thereof” (Avon Products, Inc., priority 2014, published 2015).

Test: in vitro test of lightening of synthetic melanin (absorbance at 405 nm)
Format: biochemical
Details: melanin absorbance at 405 nm relative to vehicle control, two weeks
Method: Fabiana imbricata extract (having between 15,000 and 30,000 units/g of glucose oxidase activity) was examined for its ability to lighten melanin in an in vitro test. A solution of synthetic melanin at a concentration of 0.025% in dimethyl sulfoxide was prepared. 1 ml was added to each well of a 24-well plate. A 1% stock solution of Fabiana imbricata extract was prepared in phosphate-buffered saline and diluted serially at a ratio of 1:2 yielding 0.5%, 0.25% and 0.125% solutions of Fabiana imbricata extract. Solutions of glucose were prepared similarly. 10 microliters of each concentration of Fabiana imbricata extract was added along with 10 microliters of glucose to 1 ml of the melanin solution in each well of the microplate. Each concentration was tested in triplicate. Three wells received the phosphate-buffered saline as vehicle control. Hydrogen peroxide at 0.3, 0.03 and 0.003% was added to 3 wells each as positive control. The microplate was incubated at room temperature and treatments described above were repeated for a total of ten times over two weeks. At the end of the incubation period, melanin absorbance was measured at 405 nm using a spectrophotometer. Results are summarized in the table below as percent of melanin absorbance relative to vehicle control. A lower absorbance indicates lightening of melanin.

## OO [Example H2O2, Hydrogen peroxide]
0.003% H2O2 positive control
  % Relative Absorbance: 87.5%
0.03% H2O2 positive control
  % Relative Absorbance: 70.6%
0.3% H2O2 positive control
  % Relative Absorbance: 30.6%
